Converted amounts (≈) assume the structure as drawn. Like-named read-outs stand apart in the source and are kept apart here.
Assays:
[1] = test system: Hela cells; experiment: Cloning efficiency of Hela cells in vitro (colony inhibition); assay type: cell-based; conditions: Homo sapiens
Procedure: After treatment for 2, 8 and 24 hours, Hela cells were seeded (200 cells per plate) and the number of colonies determined 8 days later. The inhibiting dose (ID50) represents the does which produces a 50% inhibition of colonies.
^a cloning efficiency of Hela cells

[2] = test system: Moloney Sarcoma Virus (MSV); experiment: Formation of foci by Moloney Sarcoma Virus (MSV) in vitro (antiviral action); assay type: cell-based; conditions: Fibroblast, 72 h, read-out: Antiviral action ID50
Procedure: (§1) The test compound was evaluated on mouse embryo fibroblast (MEF) cultures infected with MSV and on similar uninfected cultures. After a treatment of three days the inhibiting doses (ID50) were evaluated on cell proliferation in uninfected cultures (cytotoxic action) and on MSV foci formation in infected cultures (antiviral action).
^b inhibition of MSV foci formation

[3] = Proliferation of uninfected mouse embryo fibroblast (MEF) cultures (cytotoxic action); assay type: cell-based; conditions: mouse, mouse embryo fibroblasts; uninfected MEF, three days treatment; Table 2; read-out: Cytotoxic action ID50
Procedure: as §1
^c inhibition of mouse embryo fibroblasts proliferation

[4] = test system: L 1210 leukemia; experiment: L 1210 leukemia bearing BDF mice, single i.p. treatment on first day; assay type: in vivo, mouse (BDF); conditions: for T/C %: single i.p. day 1
From the text: Inbread BDF mice were intraperitoneally inoculated with 1×10^5 leukemia cells/mouse and then treated with 3'-4'-epi-6'-hydroxydaunomycin:Single treatment i.p. on the first day.

[5] = test system: Ascites Sarcoma 180; experiment: Ascites Sarcoma 180 in Swiss CD1 mice, i.p.; assay type: in vivo, mouse (Swiss CD1); conditions: i.p. one day after inoculation
Procedure: In Table 5 the activity of 3'-4'-epi-6'-hydroxyadriamycin on Ascites Sarcoma 180 in mice is reported. The test was carried out on groups of 10 mice (Swiss CD1). The compound under examination was administered intraperitoneally in varying doses to the test animals one day after intraperitoneal inoculation with 1×10^6 tumor cells/mouse.
The average survival time is given as percentage of the survival time of untreated animals, which is arbitrarily designated as 100%. The number of long term survivors (LTS) is also reported.

[6] = test system: experimental mouse tumors; experiment: Experimental mouse tumors (overall); assay type: in vivo; conditions: mouse, in vivo
Procedure: The test was carried out on groups of 10 mice (Swiss CD1). The compound under examination was administered intraperitoneally in varying doses to the test animals one day after intraperitoneal inoculation with 1×10^6 tumor cells/mouse.
The above compound was tested in comparison with adriamycin in several in vitro systems and experimental mouse tumors.

Q: What does the source list for `COc1cccc2c1C(=O)c1c(O)c3c(c(O)c1C2=O)C[C@@](O)(C(C)=O)C[C@@H]3O[C@H]1C[C@H](N)[C@H](O)[C@H](C)O1` [Daunomycin]?
A: IC50 ([1]; 2 h, read-out: ID50 (action on Hela cells), 2 hours treatment, Table 1): 17 mg/L (≈ 32.2 µM); IC50 ([1]; 8 h, read-out: ID50 (action on Hela cells), 8 hours treatment, Table 1): 8.5 mg/L (≈ 16.1 µM); IC50 ([1]; 24 h, read-out: ID50 (action on Hela cells), 24 hours treatment, Table 1): 6.8 mg/L (≈ 12.9 µM); IC50 [2]: 0.003 mg/L (≈ 0.00569 µM); CC50 at 72 h [3]: 0.016 mg/L (≈ 0.0303 µM)

Q: Which T/C % ([4]; 7.5 ng/Kg (so in the source)) does the source give for `COc1cccc2c1C(=O)c1c(O)c3c(c(O)c1C2=O)C[C@@](O)(C(C)=O)C[C@@H]3O[C@H]1C[C@@H](N)[C@@H](O)[C@H](CO)O1` [3'-4'-epi-6'-hydroxydaunomycin, 3',4'-epi-6'-hydroxy-daunomycin] here?
A: 150%

Q: What about the T/C % ([4]; 11.5 ng/Kg (so in the source)) of the same compound?
A: 150%

Q: What about the T/C % ([4]; 17.25 ng/Kg (so in the source)) of the same compound?
A: 150%

Q: What about the in vivo activity ([4]; Table 4) of the same compound?
A: significant in vivo activity

Q: With `COc1cccc2c1C(=O)c1c(O)c3c(c(O)c1C2=O)C[C@@](O)(C(=O)CO)C[C@@H]3O[C@H]1C[C@@H](N)[C@@H](O)[C@H](CO)O1` [3'-4'-epi-6'-hydroxyadriamycin, 3',4'-epi-6'-hydroxy-adriamycin] as the compound, how does the “LTS (long term survivors)” value ([5]; 3 ng/Kg (so in the source)) read?
A: 1/10

Q: And the “T/C % (average survival time, % of untreated)” value ([5]; 3 ng/Kg (so in the source))?
A: 123%

Q: What about the “LTS (long term survivors)” value ([5]; 4.5 ng/Kg (so in the source)) of the same compound?
A: 2/10

Q: And the “T/C % (average survival time, % of untreated)” value ([5]; 4.5 ng/Kg (so in the source))?
A: 226%

Q: And the “T/C % (average survival time, % of untreated)” value ([5]; 6.7 ng/Kg (so in the source))?
A: 138%

Q: And the “T/C % (average survival time, % of untreated)” value ([5]; 10.5 ng/Kg (so in the source))?
A: 138%

Q: And the “activity in experimental tumors” value [6]?
A: active in experimental tumors
